Patent publication US10793566B2, “Bruton's tyrosine kinase inhibitors” (Zibo Biopolar Changsheng Pharmaceutical Co. Ltd., priority 2016, dated 2020)

Key:
BTK [1] = molecular target: T1, BTK (Homo sapiens (Human), UniProt Q06187); experiment: Btk occupancy in cellular assays (PCI-33380 labeling); type: cell-based; details: Jeko-1 cells, 1.5 h pre-incubation, PCI-33380 probe
Description: Btk Occupancy in Cellular Assays
For PCI-33380 labeling of human B cells, 10^6 Jeko-1 cells were pre-incubated with compound for 1.5 h before labeling. Then cells were treated with PCI-33380 at 5 μM for 1 h. Washed, lysed in Ripa buffer containing sample reducing agent, and analyzed by SDS/PAGE and fluorescent gel scanning using a Typhoon scanner 9500 (GE Healthcare) (Ex, 532 nm; Em, 555 nm). The gel was then blotted and total Btk levels detected by standard Western blot with Btk antibody (CST).
Target sequence in this assay (Q06187 whole entry): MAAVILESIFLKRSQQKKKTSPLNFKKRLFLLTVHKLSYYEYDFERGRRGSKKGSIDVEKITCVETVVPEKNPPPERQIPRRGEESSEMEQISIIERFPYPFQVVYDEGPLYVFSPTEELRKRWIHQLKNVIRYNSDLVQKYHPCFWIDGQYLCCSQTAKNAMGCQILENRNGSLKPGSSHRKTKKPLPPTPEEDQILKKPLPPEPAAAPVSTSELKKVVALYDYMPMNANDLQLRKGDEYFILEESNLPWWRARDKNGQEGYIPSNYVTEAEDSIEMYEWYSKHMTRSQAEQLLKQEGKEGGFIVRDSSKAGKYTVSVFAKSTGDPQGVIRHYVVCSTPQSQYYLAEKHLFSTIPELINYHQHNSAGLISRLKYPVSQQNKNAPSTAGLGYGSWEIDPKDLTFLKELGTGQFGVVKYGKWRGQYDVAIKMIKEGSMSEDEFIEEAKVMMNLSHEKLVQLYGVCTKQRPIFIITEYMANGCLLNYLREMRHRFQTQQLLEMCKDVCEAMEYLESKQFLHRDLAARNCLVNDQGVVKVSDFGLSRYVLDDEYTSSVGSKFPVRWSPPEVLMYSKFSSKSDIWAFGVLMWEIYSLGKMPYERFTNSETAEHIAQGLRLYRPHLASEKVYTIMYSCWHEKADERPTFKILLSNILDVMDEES

Ramos cells = experiment: Calcium flux assay, anti-IgM stimulated Ramos cells; type: cell-based; details: Homo sapiens, IgM-induced calcium influx, read-out: Ramos Ca Flux
Description: Calcium flux fluorescence-based assays were performed in aFDSS7000EX (Hamamatsu Photonics) fluorometric imaging plate reader according to manufacturer instructions. Compounds to be assayed were dissolved in DMSO, diluted to appropriate concentrations in Ca^2+ buffer ranging from 0 to 10 μM (at a dilution factor of 0.1), added 5 μl (6 X) to each well (the final DMSO concentration was 0.1% in each well). Then 12.5 μL 2× dye loading solution (Fluo-4 NW Calcium Assay Kits, Invitrogen) was added per well of a 384-well plate. Afterwards, actively growing Ramos cells (ATCC) in RPM1640 medium supplemented with 10% FBS (Invitrogen) were washed and re-plated in assay buffer (from Fluo-4 NW Calcium Assay Kits, Invitrogen) to approximately 6.4×10^6/ml (80000 cells/12.5 μL in 384-well plates). The plates were incubated at 37° C. for 30 minutes, then at room temperature for an additional 30 minutes. The plates were now ready to be used in an experiment. Immediately after the transfer and a 10-s recording of baseline fluorescence, the compound treated cells were stimulated with a goat anti-human IgM antibody ([…]; Jackson Immuno Research) and read in a FDSS for 240 seconds. Difference between the signal and that at baseline, designated adjusted relative fluorescence unit, was calculated by using a custom Excel (Microsoft, Redmond, Wash.) template to determine IgM-induced calcium influx and its inhibition by compounds. The table below show the result.

Btk [2] = molecular target: Btk (Mus musculus (Mouse), UniProt P35991); experiment: Btk occupancy in vivo (PBMCs/splenocytes, PCI-33380 labeling); details: Babc/L mice, after 4 hours
Description: For analysis of Btk occupancy in Babc/L mice following oral dosing of compounds after 4 hours. Isolating peripheral blood mononuclear cells (PBMCs) with mouse peripheral blood separation kit (Hao Yang Biological Manufacture CO., LTD, Tianjin) were collected from Babc/L mice (1 ml blood from two mice). Spleens were processed to splenocytes followed by 5 min incubation in red blood cell lysing buffer (from mouse peripheral blood separation kit). PBMCs or splenocytes were then PCI-33380-labeled and lysates analyzed by fluorescent gel scanning as described in cellular assays.

BTK [3] = molecular target: T1, BTK; experiment: Btk kinase assay (HTRF); type: biochemical; details: [ATP]=80 μM, BTK=3.4 nM; read-out: BTK Inhibition
Description: Btk Kinase Assay and Other Kinases Assay Btk kinase activity was determined using a homogenous time resolved fluorescence (HTRF) methodology. Measurements were performed in a reaction volume of 15 μL using 384-well assay plates. […] Activity was determined by the ratio of the fluorescence at 665 nm to that at 615 nm. For each compound, enzyme activity as measured at various concentrations of compound, Negative control reactions were performed in the absence of inhibitor in two replicates and eight no enzyme controls were used to determine baseline fluorescence levels.
Target sequence in this assay (Q06187 whole entry, species assumed): as the sequence (Q06187 whole entry) above

Chain of Btk (P35991 whole entry): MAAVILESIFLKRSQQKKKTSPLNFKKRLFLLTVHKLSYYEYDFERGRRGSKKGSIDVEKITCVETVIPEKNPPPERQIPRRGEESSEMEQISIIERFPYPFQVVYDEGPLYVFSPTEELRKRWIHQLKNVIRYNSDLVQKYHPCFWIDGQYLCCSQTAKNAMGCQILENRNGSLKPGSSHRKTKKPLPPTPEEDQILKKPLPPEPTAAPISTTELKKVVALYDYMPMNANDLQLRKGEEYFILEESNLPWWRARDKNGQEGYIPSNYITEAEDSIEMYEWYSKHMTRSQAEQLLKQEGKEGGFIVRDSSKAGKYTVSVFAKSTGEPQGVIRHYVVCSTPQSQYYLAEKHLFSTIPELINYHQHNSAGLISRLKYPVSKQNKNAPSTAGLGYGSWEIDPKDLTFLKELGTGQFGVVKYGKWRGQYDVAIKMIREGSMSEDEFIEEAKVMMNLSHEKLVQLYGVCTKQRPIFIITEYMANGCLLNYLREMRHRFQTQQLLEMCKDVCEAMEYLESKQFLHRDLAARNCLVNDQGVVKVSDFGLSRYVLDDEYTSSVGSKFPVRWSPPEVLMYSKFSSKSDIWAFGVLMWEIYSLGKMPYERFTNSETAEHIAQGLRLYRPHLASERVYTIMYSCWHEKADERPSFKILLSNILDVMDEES

SMILES	concentration sufficient to fully occupy the active site of Btk (BTK [1])	other results
C=CC(=O)N1CC[C@@H](n2nc3ccncc3c2-c2ccc(Oc3cccc(Cl)c3Cl)cc2)C1 [Example 41, (R)-1-(3-(3-(4-(2,3-dichlorophenoxy)phenyl)-2H-pyrazolo[4,3-c]pyridin-2-yl)pyrrolidin-1-yl)prop-2-en-1-one]	100 nM	–
C=CC(=O)N1CCC[C@@H](n2nc(-c3ccc(Oc4cccc(OC)c4F)cc3)c3cncc(OC)c32)C1 [Example 6, (R)-1-(3-(3-(4-(2-fluoro-3-methoxyphenoxy)phenyl)-7-methoxy-1H-pyrazolo[4,3-c]pyridin-1-yl)piperidin-1-yl)prop-2-en-1-one]	–	IC50 (Ramos cells): 10 to 100 nM
C=CC(=O)N1CCC[C@@H](n2nc(-c3ccc(Oc4cccc(OC)c4Cl)cc3)c3cnccc32)C1 [Example 2, (R)-1-(3-(3-(4-(2-chloro-3-methoxyphenoxy)phenyl)-1H-pyrazolo[4,3-c]pyridin-1-yl)piperidin-1-yl)prop-2-en-1-one]	100 nM	IC50 (Ramos cells): 10 to 100 nM; Btk occupancy in vivo (Btk [2]; 10 mg/kg single oral dose): full occupancy
C=CC(=O)N1CCCC1Cn1nc(-c2ccc(Oc3cccc(OC)c3F)cc2)c2cncc(OC)c21 (centres unmarked) [Example 91, 1-(2-((3-(4-(2-fluoro-3-methoxyphenoxy)phenyl)-7-methoxy-1H-pyrazolo[4,3-c]pyridin-1-yl)methyl)pyrrolidin-1-yl)prop-2-en-1-one]	–	Btk occupancy in vivo (Btk [2]; 5 mg/kg single oral dose): full occupancy
C=CC(=O)N1CCC[C@@H](n2nc(-c3ccc(Oc4cccc(OC)c4F)cc3)c3cncc(OCCC)c32)C1 [Example 77, (R)-1-(3-(3-(4-(2-fluoro-3-methoxyphenoxy)phenyl)-7-propoxy-1H-pyrazolo[4,3-c]pyridin-1-yl)piperidin-1-yl)prop-2-en-1-one]	25 nM	–
C=CC(=O)N1CC[C@@H](n2nc(-c3ccc(Oc4cccc(OC)c4Cl)cc3)c3cncc(OC)c32)C1 [Example 69, (R)-1-(3-(3-(4-(2-chloro-3-methoxyphenoxy)phenyl)-7-methoxy-1H-pyrazolo[4,3-c]pyridin-1-yl)pyrrolidin-1-yl)prop-2-en-1-one]	100 nM	–
C=CC(=O)N1CCC[C@@H](n2nc3ccncc3c2-c2ccc(Oc3cccc(Cl)c3Cl)cc2)C1 [Example 43, (R)-1-(3-(3-(4-(2,3-dichlorophenoxy)phenyl)-2H-pyrazolo[4,3-c]pyridin-2-yl)piperidin-1-yl)prop-2-en-1-one]	100 nM	–
C=CC(=O)N1CCC[C@@H](n2nc(-c3ccc(Oc4cccc(OC)c4F)cc3)c3cncc(OCC)c32)C1 [Example 73, (R)-1-(3-(7-ethoxy-3-(4-(2-fluoro-3-methoxyphenoxy)phenyl)-1H-pyrazolo[4,3-c]pyridin-1-yl)piperidin-1-yl)prop-2-en-1-one]	100 nM	Btk occupancy in vivo (Btk [2]; 5 mg/kg single oral dose): full occupancy
C=CC(=O)N1CCC[C@@H](n2nc(-c3ccc(Oc4cccc(F)c4F)cc3)c3cnccc32)C1 [Example 17, (R)-1-(3-(3-(4-(2,3-difluorophenoxy)phenyl)-1H-pyrazolo[4,3-c]pyridin-1-yl)piperidin-1-yl)prop-2-en-1-one]	100 nM	–
COc1cccc(Oc2ccc(-c3nn([C@@H]4CCCN(C(=O)/C(C#N)=C/C(C)(C)C)C4)c4c(OC)cncc34)cc2)c1F [Example 90, (R,E)-2-(3-(3-(4-(2-fluoro-3-methoxyphenoxy)phenyl)-7-methoxy-1H-pyrazolo[4,3-c]pyridin-1-yl)piperidine-1-carbonyl)-4,4-dimethylpent-2-enenitrile]	–	IC50 (BTK [3]): 10 to 100 nM
C=CC(=O)N1CCC[C@@H](n2nc(-c3ccc(Oc4cccc(OC)c4F)cc3)c3c(C)nccc32)C1 [Example 78, (R)-1-(3-(3-(4-(2-fluoro-3-methoxyphenoxy)phenyl)-4-methyl-1H-pyrazolo[4,3-c]pyridin-1-yl)piperidin-1-yl)prop-2-en-1-one]	50 nM	–
C=CC(=O)N1CC[C@@H](n2nc(-c3ccc(Oc4cccc(OC)c4F)cc3)c3cncc(OC)c32)C1 [Example 79, (R)-1-(3-(3-(4-(2-fluoro-3-methoxyphenoxy)phenyl)-7-methoxy-1H-pyrazolo[4,3-c]pyridin-1-yl)pyrrolidin-1-yl)prop-2-en-1-one]	50 nM	–
C=CC(=O)N1CCC[C@@H](n2nc(-c3ccc(Oc4cccc(OC)c4F)cc3)c3cncc(OCCO)c32)C1 [Example 98, (R)-1-(3-(3-(4-(2-fluoro-3-methoxyphenoxy)phenyl)-7-(2-hydroxyethoxy)-1H-pyrazolo[4,3-c]pyridin-1-yl)piperidin-1-yl)prop-2-en-1-one]	100 nM	–
C=CC(=O)N1CCC[C@@H](n2nc(-c3ccc(Oc4cccc(OC)c4F)cc3)c3cnccc32)C1 [Example 71, (R)-1-(3-(3-(4-(2-fluoro-3-methoxyphenoxy)phenyl)-1H-pyrazolo[4,3-c]pyridin-1-yl)piperidin-1-yl)prop-2-en-1-one]	100 nM	Btk occupancy in vivo (Btk [2]; 10 mg/kg single oral dose): full occupancy
C=CC(=O)N1CC[C@@H](n2nc(-c3ccc(Oc4cccc(F)c4Cl)cc3)c3cnccc32)C1 [Example 4, (R)-1-(3-(3-(4-(2-chloro-3-fluorophenoxy)phenyl)-1H-pyrazolo[4,3-c]pyridin-1-yl)pyrrolidin-1-yl)prop-2-en-1-one]	100 nM	IC50 (Ramos cells): 10 to 100 nM; Btk occupancy in vivo (Btk [2]; 10 mg/kg single oral dose): full occupancy
C=CC(=O)N1CC[C@@H](n2nc(-c3ccc(Oc4cccc(OC)c4F)cc3)c3cnccc32)C1 [Example 3, (R)-1-(3-(3-(4-(2-fluoro-3-methoxyphenoxy)phenyl)-1H-pyrazolo[4,3-c]pyridin-1-yl)pyrrolidin-1-yl)prop-2-en-1-one]	50 nM	IC50 (Ramos cells): 10 to 100 nM; Btk occupancy in vivo (Btk [2]; 10 mg/kg single oral dose): full occupancy
C=CC(=O)N1CCC[C@@H](n2nc(-c3ccc(Oc4cccc(OC)c4F)cc3)c3cncc(OC4CCOC4)c32)C1 (stereo partly drawn) [Example 99, 1-((3R)-3-(3-(4-(2-fluoro-3-methoxyphenoxy)phenyl)-7-((tetrahydrofuran-3-yl)oxy)-1H-pyrazolo[4,3-c]pyridin-1-yl)piperidin-1-yl)prop-2-en-1-one]	100 nM	–
C=CC(=O)N1CC[C@@H](n2nc(-c3ccc(Oc4cccc(OC)c4F)cc3)c3cncc(OCC)c32)C1 [Example 80, (R)-1-(3-(7-ethoxy-3-(4-(2-fluoro-3-methoxyphenoxy)phenyl)-1H-pyrazolo[4,3-c]pyridin-1-yl)pyrrolidin-1-yl)prop-2-en-1-one]	50 nM	–
